From patent US20260200964A1, “MONOSACCARIDES, PHARMACEUTICAL COMPOSITIONS, AND DIAGNOSTIC AND THERAPEUTIC APPLICATIONS” (Surio Therapeutics Co., LTD., priority 2022, published 2026)

Legend:
[1] = Compound stability in a biological matrix (mouse plasma); format: in vitro ADME; details: 10 μg/mL, 37° C., LC-MS/MS
Experimental: (§1) A compound was dissolved in DMSO as a 1 mg/mL stock solution. An ACN solution of the compound at 100 μg/mL was prepared from the stock solution, 10 μL of which was added to a biological matrix (90 μL) to the final concentration of 10 μg/mL for the compound. The mixtures of the compound in a biological matrix were incubated at 37° C. for 0, 0.5, 1, or 4 h. At each time point, ACN (900 μL) was added to a mixture. After the mixture was centrifuged at 15,000 rpm for 5 min, the supernatant was mixed with the same volume of H2O (1% TFA) and then analyzed by LC-MS/MS. The results are summarized in Table 3, wherein Cbz-AAM is (2R,3S,4R,5S)-6-((4-((S)-6-acetamido-2-(((benzyloxy)carbonyl)amino)hexan-amido)phenyl)(phenyl)methoxy)-2-(acetoxymethyl)-5-(2-azidoacetamido)tetrahydro-2H-pyran-3,4-diyl diacetate.

[2] = Compound stability in a biological matrix (human plasma); format: in vitro ADME; details: 10 μg/mL, 37° C., LC-MS/MS
Experimental: as §1

[3] = tested on: A549 cells; test: Flow cytometry analysis of cell labeling (azido labeling efficiency); format: cell-based; details: Homo sapiens; A549 cells (lung); azido compound 25 μM, 48 h; mean fluorescence of live cells compared with PBS negative control
Experimental: (§2) Cells (2.0×10^6 cells/mL, 2 mL) were seeded in a 6-well culture plate and attached at 37° C. overnight. After washed thrice with PBS, the cells were incubated with an azido compound (25 μM) at 37° C. for 48 h. After washed thrice with PBS, the cells were incubated with DBCO-biotin (50 μM) in 500 μL serum free DMEM at 37° C. for 1 h. The cells were washed thrice with PBS and then incubated with streptavidin-Cy5 (5 μg/mL) in 500 μL serum free DMEM at 37° C. for 1 h. The cells were washed thrice with PBS, followed by addition of 300 μL 1×trypsin/EDTA for digestion. The lifted cells were transferred to a 1.5 mL EP tube, centrifuge at 1,000 rpm for 3 min, and washed with PBS once. Finally, 500 μL PBS containing 4% PFA was added to the cell pellet to fix the cells. The cell suspension was transferred to a flow tube and mixed with 10 μL of a PI working solution (50 μg/mL) at room temperature for 30 min before being subjected to flow cytometry.
(§3) Flow cytometry was used to characterize the labeling efficiency of a compound provided herein. After cells were labeled with an azido group, DBCO-biotin was added to specifically react with the azido group. Avidin-Cy5 was added bind to the cell surface biotin for a flow cytometry analysis. Dead cells were stained with PI and excluded from the analysis. Results were presented as the mean fluorescence of live cells, compared with PBS as a negative control and Ac4ManNAz (AAM) as a positive control, Ac4ManNAz (AAM, CAS: 361154-30-5).

[4] = tested on: OVCAR3; test: as above; format: cell-based; details: OVCAR3 (ovarian), azido compound 25 μM, 48 h
Experimental: as §2, §3

[5] = tested on: MDA-MB-231; test: as above; format: cell-based; details: MDA-MB-231 (breast), azido compound 25 μM, 48 h
Experimental: as §2, §3

[6] = mean fluorescence of live cells compared with Ac4ManNAz (AAM) positive control
[7] = mean fluorescence of live cells compared with PBS negative control

Row | Structure (SMILES) | Compound Remaining (%) Mouse 1 h [1] | Compound Remaining (%) Mouse 4 h [1] | Compound Remaining (%) Human 1 h [2] | Compound Remaining (%) Human 4 h [2] | activity at 25 µM [3] | Labeling Efficiency AAM % [4, 6] | Labeling Efficiency PBS % [4, 7] | Labeling Efficiency AAM % [5, 6] | Labeling Efficiency PBS % [5, 7]
1 | CC(=O)NCCCC[C@H](NC(=O)OCc1ccccc1)C(=O)Nc1ccc(C(OC2OC(COC(=O)Cc3cccnc3)C(OC(C)=O)C(OC(C)=O)C2NC(=O)CN=[N+]=[N-])c2ccnn2C)cc1 (stereo partly drawn) [Compound A12, 1-O-(1-(2-Methylpyrazol-3-yl)-1-(4-(6-acetamido-2(S)-(benzyloxycarbonyl-amino)hexanamido)phenyl)methyl)-2-(2-azidoacetylamino)-2-deoxy-3,4-di-O-acetyl-6-O-(pyridin-3-ylacetyl)-D-mannopyranoside] | 82% | 27% | 64% | 8% | 165% | – | – | – | –
2 | CC(=O)NCCCC[C@H](NC(=O)OCc1ccccc1)C(=O)Nc1ccc(C(OC2OC(COC(C)=O)C(OC(C)=O)C(OC(C)=O)C2NC(=O)CN=[N+]=[N-])c2cn(C)cn2)cc1 (stereo partly drawn) [Compound A2, 1-O-(1-(1-methylimidazol-4-yl)-1-(4-(6-acetamido-2(S)-(benzyloxycarbonylamino)-hexanamido)phenyl)methyl)-2-(2-azidoacetylamino)-2-deoxy-3,4,6-tri-O-acetyl-D-mannopyranoside] | 98% | 87% | 100% | 90% | 250% | – | – | – | –
3 | CC(=O)NCCCC[C@H](NC(C)=O)C(=O)Nc1ccc(C(OC2OC(COC(=O)Cc3cccnc3)C(OC(C)=O)C(OC(C)=O)C2NC(=O)CN=[N+]=[N-])c2ccnn2C)cc1 (stereo partly drawn) [Compound A17, 1-O-(1-(2-Methylpyrazol-3-yl)-1-(4-(2(S),6-diacetamidohexanamido)phenyl)-methyl)-2-(2-azidoacetylamino)-2-deoxy-3,4-di-O-acetyl-6-O-(pyridin-3-ylacetyl)-D-mannopyranoside] | 77% | 28% | 63% | 10% | 161% | – | – | – | –
4 | CC(=O)NCCCC[C@H](NC(=O)OCc1ccccc1)C(=O)Nc1ccc(C(OC2OC(COC(=O)c3cccnc3)C(OC(C)=O)C(OC(C)=O)C2NC(=O)CN=[N+]=[N-])c2ccnn2C)cc1 (stereo partly drawn) [Compound A13, 1-O-(1-(2-Methylpyrazol-3-yl)-1-(4-(6-acetamido-2(S)-(benzyloxycarbonyl-amino)hexanamido)phenyl)methyl)-2-(2-azidoacetylamino)-2-deoxy-3,4-di-O-acetyl-6-O-(pyridin-3-ylcarbonyl)-D-mannopyranoside] | 76% | 22% | 50% | 12% | 180% | – | – | – | –
5 | CC(=O)NCCCC[C@H](NC(=O)OCc1ccccc1)C(=O)Nc1ccc(C(OC2OC(COC(C)=O)C(OC(C)=O)C(OC(C)=O)C2NC(=O)CN=[N+]=[N-])c2ccsc2)cc1 (stereo partly drawn) [Compound A5, 1-O-(1-(Thien-3-yl)-1-(4-(6-acetamido-2(S)-(benzyloxycarbonylamino)hexan-amido)phenyl)methyl)-2-(2-azidoacetylamino)-2-deoxy-3,4,6-tri-O-acetyl-D-mannopyranoside] | 2% | 2% | 2% | 1% | 130% | – | – | – | –
6 | CC(=O)NCCCC[C@H](NC(=O)OCc1ccccc1)C(=O)Nc1ccc(C(OC2OC(COC(C)=O)C(OC(C)=O)C(OC(C)=O)C2NC(=O)CN=[N+]=[N-])c2ccnn2C)cc1 (stereo partly drawn) [Compound A8, 1-O-(1-(2-methylpyrazol-3-yl)-1-(4-(6-acetamido-2(S)-(benzyloxycarbonyl-amino)hexanamido)phenyl)methyl)-2-(2-azidoacetylamino)-2-deoxy-3,4,6-tri-O-acetyl-D-mannopyranoside] | 76% | 23% | 61% | 16% | 196% | 24% | 132% | 31% | 209%
